Entries after “also recorded” stand apart in the source; their conditions may differ.
Tests used:
[1] = test system: NIH3T3 cells that stably express CxxC-EGFP; assay: CxxC-EGFP reporter dot formation in NIH3T3 cells; assay type: cell-based, mouse; conditions: 5 μM for 72 hours
[2] = test system: paternal DNA demethylation; assay: chemical injection into oocytes, paternal DNA demethylation; assay type: cell-based, mouse; conditions: approximately 10 pl of 10 μM in ethanol injected; final concentration estimated 0.4 μM
Protocol: For chemical injection, approximately 10 pl of 3,5-Di-tert-butyltoluene and butylated hydroxytoluence (Sigma Aldrich) at the concentration of 10 μM in ethanol were injected with H3.3-mRFP1 mRNA. The final chemical concentration is estimated as
0.4 μM based on an estimated mouse oocyte volume of 270 pl. The final estimated ethanol concentration is about 4%. For determination of knockdown efficiency, RNA isolated from 10-20 zygotes at PN4-5 stage was used for reverse transcription using the SuperScript III Cell Direct cDNA synthesis kit (Invitrogen) followed by quantitative PCR (qPCR) using SYBR GreenER (Invitrogen). Results were normalized with 18S rRNA as a standard.

Structure (SMILES) | number and intensity of GFP bright dots (nuclear dot-formation of CxxC probe) [1] | paternal DNA demethylation after chemical injection [2]
Nc1ncn([C@H]2C[C@H](O)[C@@H](CO)O2)c(=O)n1 [5-Aza-dC, 5-Aza-2′ deoxycytidine] | clear increase; also recorded: Enhanced nuclear dot-formation | –
Cc1cc(C(C)(C)C)c(O)c(C(C)(C)C)c1 [butylated hydroxytoluene] | – | blocked DNA demethylation

Source: patent publication US20120264811A1, “Elongator Proteins and Use Thereof as DNA Demethylases” (The University of North Carolina at Chapel Hill, priority 2009, published 2012)
